The values that follow come from US20260217708A1, “FUSED BENZAZEPINE DERIVATIVES FOR USE IN THE TREATMENT OF CANCER AND EPILEPSY” (UCB BIOPHARMA SRL, priority 2023, published 2026).

The structures appear in SMILES notation. A value given as a limit tells only on which side of the number the result lay.

The target of assay [1] is T1, system Xc^− (Homo sapiens, UniProt Q9UPY5).
T1 sequence (Q9UPY5 1-501): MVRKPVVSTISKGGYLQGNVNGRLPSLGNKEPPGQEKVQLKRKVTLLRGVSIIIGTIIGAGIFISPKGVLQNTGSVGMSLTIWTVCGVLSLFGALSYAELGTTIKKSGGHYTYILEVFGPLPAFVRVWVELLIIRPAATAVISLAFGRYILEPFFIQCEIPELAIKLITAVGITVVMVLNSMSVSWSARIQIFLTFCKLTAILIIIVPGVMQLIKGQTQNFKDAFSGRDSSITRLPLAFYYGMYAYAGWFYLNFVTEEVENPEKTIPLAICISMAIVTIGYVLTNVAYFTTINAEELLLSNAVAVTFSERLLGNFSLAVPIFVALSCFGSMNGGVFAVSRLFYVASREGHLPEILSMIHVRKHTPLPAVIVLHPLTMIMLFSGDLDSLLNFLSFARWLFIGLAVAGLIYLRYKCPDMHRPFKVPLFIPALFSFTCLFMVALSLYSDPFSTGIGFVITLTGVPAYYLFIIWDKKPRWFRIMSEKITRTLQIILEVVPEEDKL
T1 sequence (P08195 1-529 partner): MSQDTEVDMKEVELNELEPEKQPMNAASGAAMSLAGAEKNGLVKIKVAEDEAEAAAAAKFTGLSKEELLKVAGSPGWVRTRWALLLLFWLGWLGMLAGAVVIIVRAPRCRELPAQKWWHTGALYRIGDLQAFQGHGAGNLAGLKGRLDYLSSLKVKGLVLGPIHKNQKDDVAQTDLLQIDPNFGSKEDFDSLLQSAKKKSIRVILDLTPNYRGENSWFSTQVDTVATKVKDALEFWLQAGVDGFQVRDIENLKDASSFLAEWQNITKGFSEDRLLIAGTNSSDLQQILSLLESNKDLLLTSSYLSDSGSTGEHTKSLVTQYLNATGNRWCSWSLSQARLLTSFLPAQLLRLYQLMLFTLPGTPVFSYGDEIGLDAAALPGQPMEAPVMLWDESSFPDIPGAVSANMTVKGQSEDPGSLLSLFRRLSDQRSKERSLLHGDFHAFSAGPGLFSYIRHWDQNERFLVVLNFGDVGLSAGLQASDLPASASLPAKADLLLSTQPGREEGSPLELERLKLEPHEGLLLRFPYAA
As to the kind of experiment: Cystine-induced glutamate release assay. In kind it is cell-based. Also noted: endogenous in cells; host or cells: H4 cells. The conditions noted are these: H4 cells, sodium-free HEPES buffer, 50 μM L-Cystine, 2 hours, Amplex Red glutamate readout; read-out: pIC50 Cystine-induced glutamate release assay (converted). Put shortly: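 IC50 (reported as pIC50) normalized to DMSO 1% and Erastin 50 μM controls, from Amplex Red fluorescence of glutamate exported into supernatant. H4 cells were washed into sodium-free buffer to exclude EAAT transport, then given compound with 50 μM L-cystine for 2 h in the incubator.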

Assay [2] deals with T1, system Xc^−. As to the kind of experiment: [^14C]L-Cystine uptake assay. In kind it is cell-based. Also noted: endogenous in cells; host or cells: H4 cells. The conditions noted are these: H4 cells, sodium-free HEPES buffer, 0.5 μM L-[14C]Cystine and 4.5 μM L-Cystine, 1 hour at 37° C.; read-out: pIC50 [^14C] L-Cystine uptake assay (converted). The method in brief:
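Compound effect is given as pIC50, taken between controls of 1% DMSO and 50 μM Erastin. Human H4 cells were pretreated 15 min with compound in sodium-free buffer, then took up 0.5 μM [14C]cystine with 4.5 μM cold cystine for 1 hour at 37° C, read by scintillation proximity counting.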

Turning to `Cc1cc2c(c(F)n1)-c1ccc(F)cc1C(O)C(=O)N2CC(=O)Nc1ccc(C(F)F)cc1` (single isomer, unassigned) [#380, 2-[1,9-difluoro-7-hydroxy-3-methyl-6-oxo-7H-pyrido[4,3-d][3]benzazepin-5-yl]-N-[4-(difluoromethyl)phenyl]acetamide], the IC50 at system Xc^− [1] and on system Xc^− [2] was < 15.8 nM in each case.

In the case of `O=C(CN1C(=O)C(CO)c2ncccc2-c2c(F)cc(F)cc21)Nc1ccc(Cl)c(F)c1` (single isomer, unassigned) [#381, N-(4-chloro-3-fluoro-phenyl)-2-[9,11-difluoro-5-(hydroxymethyl)-6-oxo-5H-pyrido[2,3-d][1]benzazepin-7-yl]acetamide], the results for the IC50 at system Xc^− [1] and on system Xc^− [2] were 39.8 to 100 nM and 100 to 501 nM, respectively.

As to `O=C(CN1C(=O)C(CO)c2ncccc2-c2c(F)cc(Cl)cc21)Nc1ccc(Cl)c(F)c1` (single isomer, unassigned) [#382, 2-[9-chloro-11-fluoro-5-(hydroxymethyl)-6-oxo-5H-pyrido[2,3-d][1]benzazepin-7-yl]-N-(4-chloro-3-fluoro-phenyl)acetamide], the IC50 on system Xc^− [1] and on system Xc^− [2] was 15.8 to 39.8 nM in each case.

In the case of `CC1C(=O)N(CC(=O)Nc2ccc(Cl)c(F)c2)c2cc(Cl)cc(F)c2-c2nnccc21` (single isomer, unassigned) [#383, 2-[9-chloro-11-fluoro-5-methyl-6-oxo-5H-pyridazino[4,3-d][1]benzazepin-7-yl]-N-(4-chloro-3-fluoro-phenyl)acetamide], the IC50 was 39.8 to 100 nM at system Xc^− [1] and 15.8 to 39.8 nM at system Xc^− [2].

As for `CC1C(=O)N(CC(=O)Nc2ccc(Cl)c(F)c2)c2cc(Cl)cc(F)c2-c2ccnnc21` (single isomer, unassigned) [#384, 2-[9-chloro-11-fluoro-5-methyl-6-oxo-5H-pyridazino[3,4-d][1]benzazepin-7-yl]-N-(4-chloro-3-fluoro-phenyl)acetamide], the IC50 at system Xc^− [1] and on system Xc^− [2] was < 15.8 nM in each case.

With `CC1C(=O)N(CC(=O)Nc2ccc(Cl)c(F)c2)c2cc(Cl)cc(F)c2-c2cnncc21` (single isomer, unassigned) [#385, 2-[9-chloro-11-fluoro-5-methyl-6-oxo-5H-pyridazino[4,5-d][1]benzazepin-7-yl]-N-(4-chloro-3-fluoro-phenyl)acetamide], the IC50 was 15.8 to 39.8 nM at system Xc^− [1] and < 15.8 nM at system Xc^− [2].

In the case of `Cc1cc2c(c(Cl)n1)-c1ccnn1C(C)C(=O)N2CC(=O)Nc1ccc(C(F)F)cc1` (single isomer, unassigned) [#386, 2-[14-chloro-7,12-dimethyl-8-oxo-5,6,9,13-tetrazatricyclo[8.4.0.0^2,6]tetradeca-1(14),2,4,10,12-pentaen-9-yl]-N-[4-(difluoromethyl)phenyl]acetamide], the IC50 at system Xc^− [1] and at system Xc^− [2] was < 15.8 nM throughout.

On to `COc1cc2c(c(Cl)n1)-c1ccnn1C(C)C(=O)N2CC(=O)Nc1ccc(Cl)c(F)c1` (single isomer, unassigned) [#387, N-(4-chloro-3-fluoro-phenyl)-2-[14-chloro-12-methoxy-7-methyl-8-oxo-5,6,9,13-tetrazatricyclo[8.4.0.0^2,6]tetradeca-1(10),2,4,11,13-pentaen-9-yl]acetamide], for which the IC50 on system Xc^− [1] and on system Xc^− [2] was 15.8 to 39.8 nM in each case.

Turning to `Cc1cc2c(c(Cl)n1)-c1cc(F)nn1C(C)C(=O)N2CC(=O)Nc1ccc(C(F)F)cc1` (single isomer, unassigned) [#389, 2-[14-chloro-4-fluoro-7,12-dimethyl-8-oxo-5,6,9,13-tetrazatricyclo[8.4.0.0^2,6]tetradeca-1(14),2,4,10,12-pentaen-9-yl]-N-[4-(difluoromethyl)phenyl]acetamide], the IC50 at system Xc^− [1] and on system Xc^− [2] was < 15.8 nM each time.

`CC1C(=O)N(CC(=O)Nc2ccc(Cl)c(F)c2)c2cc(C#N)c(F)cc2-c2cccnc21` (single isomer, unassigned) [#394, N-(4-chloro-3-fluoro-phenyl)-2-[9-cyano-10-fluoro-5-methyl-6-oxo-5H-pyrido[2,3-d][1]benzazepin-7-yl]acetamide]: the IC50 is 15.8 to 39.8 nM on system Xc^− [1] and 39.8 to 100 nM on system Xc^− [2].

In the case of `Cc1cc2c(cn1)-c1ccc(Cl)cc1C(C)C(=O)N2CC(=O)Nc1ccc(C(F)F)cc1` (single isomer, unassigned) [#396, 2-[9-chloro-3,7-dimethyl-6-oxo-7H-pyrido[3,4-a][3]benzazenin-5-yl]-N-[4-(difluoromethyl)phenyl]acetamide], the IC50 on system Xc^− [1] and on system Xc^− [2] was 15.8 to 39.8 nM in each case.

Regarding `CC1C(=O)N(CC(=O)Nc2ccc(Cl)c(F)c2)c2cc(C(F)(F)F)nc(O)c2-c2ccccc21` (single isomer, unassigned) [#397, N-(4-chloro-3-fluoro-phenyl)-2-[1-hydroxy-7-methyl-6-oxo-3-(trifluoromethyl)-7H-pyrido[3,4-a][3]benzazepin-5-yl]acetamide], the IC50 at system Xc^− [1] and on system Xc^− [2] was 39.8 to 100 nM throughout.

Regarding `CC1C(=O)N(CC(=O)Nc2ccc(C(F)F)cc2)c2ccnc(Cl)c2-c2cccnc21` (single isomer, unassigned) [#398, N-[4-(difluoromethyl)phenyl]-2-[3-chloro-10-methyl-9-oxo-4,8,12-triazatricyclo[9.4.0.0^2,7]pentadeca-1(11),2(7),3,5,12,14-hexaen-8-yl]acetamide], the IC50 at system Xc^− [1] is 15.8 to 39.8 nM; at system Xc^− [2], 39.8 to 100 nM.

In the case of `Cc1cc2c(c(F)n1)-c1ncccc1C(C)C(=O)N2CC(=O)Nc1ccc(Cl)c(F)c1` (single isomer, unassigned) [#401, N-(4-chloro-3-fluoro-phenyl)-2-[15-fluoro-8,13-dimethyl-9-oxo-3,10,14-triazatricyclo[9.4.0.0^2,7]pentadeca-1(15),2,4,6,11,13-hexaen-10-yl]acetamide], the IC50 on system Xc^− [1] and at system Xc^− [2] was < 15.8 nM in each case.

`COc1cc2c(c(F)n1)-c1cc(F)cnc1C(C)C(=O)N2CC(=O)Nc1ccc(Cl)c(F)c1` (single isomer, unassigned) [#403, N-(4-chloro-3-fluoro-phenyl)-2-[3,14-difluoro-5-methoxy-10-methyl-9-oxo-4,8,12-triazatricyclo[9.4.0.0^2,7]pentadeca-1(11),2(7),3,5,12,14-hexaen-8-yl]acetamide]: the IC50 at system Xc^− [1] and at system Xc^− [2] was < 15.8 nM throughout.

Turning to `Cc1cc2c(c(F)n1)-c1cc(F)ccc1C(C)C(=O)N2CC(=O)Nc1ccc(Cl)c(F)c1` (single isomer, unassigned) [#405, N-(4-chloro-3-fluoro-phenyl)-2-[1,10-difluoro-3,7-dimethyl-6-oxo-7H-pyrido[3,4-a][3]benzazepin-5-yl]acetamide], the IC50 on system Xc^− [1] was 15.8 to 39.8 nM; on system Xc^− [2] it was < 15.8 nM.

In the case of `CC1C(=O)N(CC(=O)Nc2ccc(Cl)c(F)c2)c2cc(F)cc(F)c2-c2cccnc21` (single isomer, unassigned) [#406, N-(4-chloro-3-fluoro-phenyl)-2-[9,11-difluoro-5-methyl-6-oxo-5H-pyrido[2,3-d][1]benzazepin-7-yl]acetamide], the IC50 at system Xc^− [1] and at system Xc^− [2] was 15.8 to 39.8 nM throughout.

As for `Cc1cc2c(cn1)-c1ncccc1C(C)C(=O)N2CC(=O)Nc1ccc(Cl)c(F)c1` (single isomer, unassigned) [#407, N-(4-chloro-3-fluoro-phenyl)-2-[8,13-dimethyl-9-oxo-3,10,14-triazatricyclo[9.4.0.0^2,7]pentadeca-1(15),2,4,6,11,13-hexaen-10-yl]acetamide], the IC50 on system Xc^− [1] and at system Xc^− [2] was 39.8 to 100 nM in each case.

Turning to `Cc1cc2c(c(F)n1)-c1nccnc1C(C)C(=O)N2CC(=O)Nc1ccc(Cl)c(F)c1` (single isomer, unassigned) [#408, N-(4-chloro-3-fluoro-phenyl)-2-[15-fluoro-8,13-dimethyl-9-oxo-3,6,10,14-tetrazatricyclo[9.4.0.0^2,7]pentadeca-1(15),2,4,6,11,13-hexaen-10-yl]acetamide], the IC50 at system Xc^− [1] and at system Xc^− [2] was 39.8 to 100 nM each time.
